Measurements published in patent US20060292076A1, “Antimicrobial mediated ozone generation” (priority 2002, published 2006).
Entries after “also recorded” stand apart in the source; their conditions may differ.

Assays:
[1] = Production of hydrogen peroxide by immunoglobulins and proteins under UV irradiation (Amplex Red assay); type: biochemical; settings: for ability of non-immunoglobulin proteins to reduce ^1O2 / generate H2O2: irradiation in PBS
Method: All assays were carried out in PBS (10 mM phosphate/160 mM sodium chloride, pH 7.4). Commercial protein solution samples were dialyzed into PBS as necessary. Amplex Red hydrogen peroxide assay kits (A-12212) were obtained from Molecular Probes.
Antibody/Protein Irradiation. Unless otherwise stated, the assay solution (100 μl, 6.7 μM protein in PBS, pH 7.4) was added to a glass vial, sealed with a screw-cap, and irradiated with either UV (312 nm, […] Fischer-Biotech transilluminator) or visible light.
Quantitative Assay for Hydrogen Peroxide. An aliquot (20 μl) from the protein solution was removed and added into a well of a 96-well microtiter plate (Costar) containing reaction buffer (80 μL). Working solution (100 μl/400 μM Amplex Red reagent ½ units/ml horseradish peroxidase) was then added, and the plate was incubated in the dark for 30 min. The fluorescence of the well components was then measured using a CytoFluor Multi well Plate Reader (Series 4000, PerSeptive Biosystems, Framingham, Mass.; Ex/Em: 530/580 nm). The hydrogen peroxide concentration was determined using a standard curve. All experiments were run in duplicate, and the rate is quoted as the mean of at least two measurements.

[2] = H2O2 formation with hematoporphyrin IX sensitization and visible light (sensitization and quenching assays); type: biochemical; settings: D2O or NaN3 (40 mM)
Method: Sensitization and Quenching Assays. A solution of 31127 (100 μl of horse IgG, 6.7 μM) in PBS (pH 7.4, 4% dimethylformamide) and hematoporphyrin IX (40 μM) was placed in proximity to a strip light. Hydrogen peroxide concentration was determined as described herein. […]
Assay for H2O2 production as a function of the efficiency of ^1O2 formation via ^3O2 sensitization with hematoporphyrin IX: The assay is a modification of a procedure developed by H. Sakai and co-workers, Proc. SPE-Int. Soc. Opt. Eng., 2371, 264 (1995). In brief, the horse poly-IgG (1 mg/mL) in PBS (50 mM, pH 7.4) and hematoporphyrin IX (40 μM) is irradiated with white light from a transilluminator. Aliquots are removed (50 μL) and the concentration of H2O2 and 3-aminophthalic acid measured simultaneously. H2O2 concentration was measured by the amplex red assay (Zhou et al., Anal. Biochem., 253, 162 (1997)). 3-Aminophthalic acid concentration was measured by reversed-phase HPLC on a Hitachi D4000 series machine with an Adsorbosphere-C18 column, a UV detector at 254 nm, and a mobile phase of acetonitrile/water (0.1% TFA) of 18:82 at 1 mL/min (retention time of luminol=7.4 min and 3-aminophthalic acid 3.5 min). The concentrations of luminol and 3-aminophthalic acid were determined by comparison of peak height and area to control samples. […]

[3] = system: E. coli; experiment: Bactericidal assay, E. coli (strain not singled out or both serotypes); type: cell-based
Method: (§1) In a typical experiment, a culture of E. coli (in log phase growth, OD600=0.2-0.3) was repeatedly pelleted (3×3,500 rpm) and resuspended in PBS (pH 7.4). The PBS suspended cells were then added to glass vials and cooled to 4° C. Hematoporphyrin IX (40 μM) and antibody (20 μM) were added and the vials were either placed on a light box (visible light, 2.8 mW cm^−2) or in the dark at 4° C. and incubated for 1 h. Viability was determined by recovery of colony forming units (CFUs) on agar plates. Each experiment was performed at least in duplicate.
as §1, with “washed in PBS by pelleting” for “pelleted”, “rpm) the cells” for “rpm)”, “resuspending them” for “resuspended”

[4] = Consumption of hydrogen peroxide by catalase (peroxide stick test); type: biochemical; settings: 1 min after addition of catalase
Method: Consumption of Hydroen Peroxide by Catalase. A solution of EP2-19G12 (100 μl of mouse IgG, 20 μM in PBS, pH 7.4) was irradiated with UV light for 30 min, after which time the concentration of hydrogen peroxide was determined by stick test (EM Quant Peroxide Test Sticks) to be 2 mg/liter.

β-galactosidase: non-immunoglobulin protein, Sigma
H2O2 generated by photo-production ([1]; from its 39 Trp residues, FIG. 8A): 5.9 mol eq.

[N-]=[N+]=[N-].[Na+] [NaN3]
rate of formation of H2O2 by horse IgG with HP (40 μM) in visible light in the presence of additive [2]: reduced

N[C@@H](Cc1c[nH]c2ccccc12)C(=O)O [Trp, tryptophan]
H2O2 production during near-UV irradiation ([1]; tryptophan 20 μM, FIG. 11A): ca. 0.5 mole equivalents

[2H]O[2H] [Clone D2O, D2O]
rate of formation of H2O2 by horse IgG with HP (40 μM) in visible light in the presence of additive [2]: increased

CC1=C(CCC(=O)O)c2cc3[nH]c(cc4nc(cc5[nH]c(cc1n2)c(C)c5C(C)O)C(C)=C4C(C)O)c(C)c3CCC(=O)O (stereo not shown) [hematoporphyrin IX]
bactericidal activity ([3]; HPIX 40 μM, white light 1 h, 4 °C): negligible bactericidal activity

chick ovalbumin: chick-egg ovalbumin
ability of non-immunoglobulin proteins to reduce ^1O2 / generate H2O2 [1]: one of the most efficient proteins at reducing

superoxide dismutase: enzyme, Sigma
ability of non-immunoglobulin proteins to reduce ^1O2 / generate H2O2 [1]: the same as irradiation of PBS alone; also recorded: do not reduce; also recorded: does not reside

O=C(O)CN(CCN(CC(=O)O)CC(=O)O)CC(=O)O [EDTA]
effect of presence of EDTA on the survival of bacteria ([3]; 2 mM): no effect

B1: catalase: enzyme that converts H2O2 to water and molecular oxygen (protein, UniProt P00432 2-527, looked up)
Catalase: ADNRDPASDQMKHWKEQRAAQKPDVLTTGGGNPVGDKLNSLTVGPRGPLLVQDVVFTDEMAHFDRERIPERVVHAKGAGAFGYFEVTHDITRYSKAKVFEHIGKRTPIAVRFSTVAGESGSADTVRDPRGFAVKFYTEDGNWDLVGNNTPIFFIRDALLFPSFIHSQKRNPQTHLKDPDMVWDFWSLRPESLHQVSFLFSDRGIPDGHRHMNGYGSHTFKLVNANGEAVYCKFHYKTDQGIKNLSVEDAARLAHEDPDYGLRDLFNAIATGNYPSWTLYIQVMTFSEAEIFPFNPFDLTKVWPHGDYPLIPVGKLVLNRNPVNYFAEVEQLAFDPSNMPPGIEPSPDKMLQGRLFAYPDTHRHRLGPNYLQIPVNCPYRARVANYQRDGPMCMMDNQGGAPNYYPNSFSAPEHQPSALEHRTHFSGDVQRFNSANDDNVTQVRTFYLKVLNEEQRKRLCENIAGHLKDAQLFIQKKAVKNFSDVHPEYGSRIQALLDKYNEEKPKNAVHTYVQHGSHLSAREKANL
extent of protection against antigen-specific antibodies ([3]; catalase 13 mU/mL): varied over a wide range
protection against the bactericidal activity of non-specific antibodies ([3]; catalase 13 mU/mL): complete protection; also recorded: completely attenuated
concentration of H2O2 after catalase [4]: 0 mg/L

B2: RNase A: non-immunoglobulin protein, Amersham Pharmacia (protein, UniProt P61823 27-150, looked up)
Ribonuclease pancreatic: KETAAAKFERQHMDSSTSAASSSNYCNQMMKSRNLTKDRCKPVNTFVHESLADVQAVCSQKNVACKNGQTNCYQSYSTMSITDCRETGSSKYPNCAYKTTQANKHIIVACEGNPYVPVHFDASV
ability of non-immunoglobulin proteins to reduce ^1O2 / generate H2O2 [1]: do not reduce
ability of non-immunoglobulin proteins to reduce ^1O2 / generate H2O2 ([1]; listed as RNaseA): does not reside
